Patent publication US5849259A, “3-,8-substituted deuteroporphyrin derivatives, pharmaceutical agents containing the latter and process for their production” (priority 1992, dated 1998)

What was measured:
Format in all cases: in vivo, nude mice (Balb/c nu/nu)
[1] = Tissue concentrations by ICP-AES after 0.1 mmol/kg i.v. in nude mice with subcutaneously implanted colon cancers (HT29, WiDr); details: within 24 hours
Protocol: a) 9 nude mice (Balb/c nu/nu) with subcutaneously implanted colon cancers (HT29, WiDr) were each administered by i.v. 0.1 mmol/kg of the mesoporphyrin derivative of example 1b (10 mmol/l dissolved in bidistilled water, pH 7.2, 37° C.). After 0.5, 3 and 24 hours the animals were killed and dissected. The tissue concentrations were determined after corresponding working-up (HNO3 conc.) by ICP-AES and calculated for % of the administered dose per gram of tissue net weight.
e) 9 nude mice (Balb/c nu/nu) with subcutaneously implanted colon cancers (HT29 and WiDr) were each administered by i.v. 0.1 mmol/kg of the deuteroporphyrin derivative of the compound according to example 1c (10 mmol/l dissolved in bidistilled water, pH 7.2, 37° C.). After 0.5, 3 and 24 hours, the animals were killed and dissected. The tissue concentrations were determined after corresponding working-up (HNO3 conc.) by ICP-AES and calculated for % of the administered dose per gram of tissue net weight. Moreover, tissue relaxation times T1 and T2 were determined (Bruker minispec pc 120).
9 nude mice (Balb/c nu/nu) with subcutaneously implanted colon cancers (HT29, WiDr) were each administered by i.v. 0.1 mmol/kg of the mesoporphyrin derivative of example 8e (10 mmol/l dissolved in bidistilled water, pH 7.2, 37° C.). After 0.5, 3 and 24 hours, the animals were killed and dissected. The tissue concentrations were determined after corresponding working-up (HNO3 conc.) by ICP-AES and calculated for % of the administered dose per gram of tissue net weight.
9 nude mice (Balb/c nu/nu) with subcutaneously implanted colon cancers (HT29, WiDr) were each administered by i.v. 0.1. mmol/kg of the mesoporphyrin derivative of example 16f (10 mmol/l dissolved in bidistilled water, pH 7.2, 37° C.). After 0.5 and 3 hours the animals were killed and dissected. The tissue concentrations were determined after corresponding working-up (HNO3 conc.) by ICP-AES and calculated for % of the administered dose per gram of tissue net weight.
9 nude mice (Balb/c nu/nu) with subcutaneously implanted colon cancers (HT29, WiDr) were each administered by i.v. 0.1 mmol/kg of the mesoporphyrin derivative of example 18d (10 mmol/l dissolved in bidistilled water, pH 7.2, 37° C.). After 0.5 and 3 hours, the animals were killed and dissected. The tissue concentrations were determined after corresponding working-up (HNO3 conc.) by ICP-AES and calculated for % of the administered dose per gram of tissue net weight.
9 nude mice (Balb/c nu/nu) with subcutaneously implanted colon cancers (HT29, WiDr) were each administered by i.v. 0.1 mmol/kg of the mesoporphyrin derivative of example 19e (10 mmol/l dissolved in bidistilled water, pH 7.2, 37° C.). After 0.5, 3 and 24 hours, the animals were killed and dissected. The tissue concentrations were determined after corresponding working-up (HNO3 conc.) by ICP-AES and calculated for % of the administered dose per gram of tissue net weight.

[2] = tested on: HT29 and WiDr colon cancers; assay: Enhancement (signal intensity change, NMR imaging) in tissues with HT29/WiDr tumors, Example 22 Table 2
[3] = tested on: HT29 and WiDr colon cancer; assay: Signal intensity change in tissues of tumor-bearing (HT29 and WiDr colon cancer) nude mice, example 2c, 0.05 mmol/kg; details: 0.05 mmol/kg i.v.; for enhancement, HT29 / enhancement, Kidneys / enhancement, Liver / enhancement, Muscle / enhancement, WiDr: time 0 = 100
Protocol: On a Bruker Biospec nuclear spin tomograph (2.35 Tesla), the signal intensity change in various tissues of tumor-bearing (HT29 and WiDr colon cancer) nude mice (Balb/c nu/nu) was studied after i.v. administration of 0.05 mmol/kg of the compound according to example 2c (10 mmol/l, pH 7.2; 37° C. in bidistilled water). The measurement takes place with a multi slice single echo sequence (MSSE). Imaging parameters: TR: 400 ms, TE: 30 ms, layer thickness: 4 mm, number of averages: 4/slice, matrix 256^2. After a preliminary image, 0.05 mmol/kg of the substance was administered and the signal intensity change (relative to an internal standard) was studied 5, 30, 60, 120 and 180 minutes

## 13,17-Bis-(15-carboxylato-6-oxo-8,11,14-tris-(carboxylatomethyl)-5,8,11,14-tetraazapentadecyl]-3,8-diethyl-2,7,12,18-tetramethylporphyrin, digadolinium complex, disodium salt [Example 19e]
[1]
  decrease of tissue concentration except liver, relative to 0.5 hour p.i.: 5-20 factor

## N,N'-Bis[9-carboxylato-2,5-bis(carboxylatomethyl)-8-(ethoxycarboxymethyl-2,5,8-triazanonyl-carbamoyl]-mesoporphyrin-IX-13,17-diamide, digadolinium complex [Example 1b]
[2]; 5 min
  enhancement, HT29: 1.36
  enhancement, Kidneys: 2.89
  enhancement, Liver: 1.43
  enhancement, Muscle: 1.41
  enhancement, WiDr: 1.16
[2]; 5 minutes p.i.
  signal intensity change, liver tissue: marked signal intensity increase
[2]; 15 min
  enhancement, HT29: 1.49
  enhancement, Kidneys: 2.70
  enhancement, Liver: 1.43
  enhancement, Muscle: 1.41
  enhancement, WiDr: 1.16
[2]; 30 min
  enhancement, HT29: 1.54
  enhancement, Kidneys: 2.65
  enhancement, Liver: 1.40
  enhancement, Muscle: 1.39
  enhancement, WiDr: 1.18
[2]; 45 min
  enhancement, HT29: 1.55
  enhancement, Kidneys: 2.79
  enhancement, Liver: 1.42
  enhancement, Muscle: 1.40
  enhancement, WiDr: 1.25
[2]; 60 min
  enhancement, HT29: 1.59
  enhancement, Kidneys: 2.56
  enhancement, Liver: 1.38
  enhancement, Muscle: 1.29
  enhancement, WiDr: 1.05
[2]; 75 min
  enhancement, HT29: 1.97
  enhancement, Kidneys: 2.53
  enhancement, Liver: 1.51
  enhancement, Muscle: 1.47
  enhancement, WiDr: 1.23
[2]; 75 minutes p.i.
  maximum enhancement, liver: +50%
  maximum enhancement, tumor: +100%
[2]; 90 min
  enhancement, HT29: 1.51
  enhancement, Kidneys: 2.40
  enhancement, Liver: 1.43
  enhancement, Muscle: 1.50
  enhancement, WiDr: 1.28
[2]; 120 min
  enhancement, HT29: 1.64
  enhancement, Kidneys: 2.15
  enhancement, Liver: 1.47
  enhancement, Muscle: 1.34
  enhancement, WiDr: 1.22
[2]; 24 hours
  enhancement, HT29: 1.05
  enhancement, Kidneys: 1.51
  enhancement, Liver: 1.19
  enhancement, Muscle: 1.24
  enhancement, WiDr: 1.64
[2]; after 30 minutes
  signal intensity change, tumor: marked signal intensity increase
[2]; mouse, in vivo
  signal intensity change, kidneys: stronger signal intensity change
[2]; reference tissue
  signal intensity change, muscle: only a small change

## N,N'-Bis[13-carboxylato-4-oxo-6,8,12-tris-(carboxylatomethyl)-3,6,9,12-tetraazatridecyl]-mesoporphyrin--IX-3,17-diamide, digadolinium complex, disodium salt [Example 2c]
[3]
  time of greatest signal intensity difference: 2 hours p.i. or 3 hours p.i.
[3]; 5 min
  enhancement, HT29: 171 ± 14
  enhancement, Kidneys: 169 ± 45
  enhancement, Liver: 173 ± 31
  enhancement, Muscle: 143 ± 23
  enhancement, WiDr: 165 ± 39
[3]; 5 minutes p.i.
  signal intensity change, liver tissue and both tumors: marked signal intensity increase
[3]; 30 min
  enhancement, HT29: 169 ± 14
  enhancement, Kidneys: 211 ± 33
  enhancement, Liver: 157 ± 30
  enhancement, Muscle: 157 ± 29
  enhancement, WiDr: 170 ± 32
[3]; 60 min
  enhancement, HT29: 168 ± 12
  enhancement, Kidneys: 207 ± 31
  enhancement, Liver: 170 ± 16
  enhancement, Muscle: 120 ± 8
  enhancement, WiDr: 153 ± 33
[3]; 120 min
  enhancement, HT29: 178 ± 32
  enhancement, Kidneys: 191 ± 37
  enhancement, Liver: 179 ± 37
  enhancement, Muscle: 126 ± 10
  enhancement, WiDr: 153 ± 0
[3]; 180 min
  enhancement, HT29: 136 ± 23
  enhancement, Kidneys: 136 ± 25
  enhancement, Liver: 167 ± 7
  enhancement, Muscle: 112 ± 9
  enhancement, WiDr: 117 ± 33
[3]; reference tissue
  signal intensity change, muscle: only a small change
[3]; up to 2 hours p.i.
  signal intensity change, kidneys: even stronger signal intensity change
